Tests used:
green beans = experiment: Phytotoxicity Test, green beans; assay type: in vivo; parameters: key: A rating of 1 indicates no perceptible injury; ratings of 2, 3 and 4 indicate intermediate degrees of injury; ratings of 2, 3 and 4 indicate intermediate degrees of injury; ratings of 2, 3 and 4 indicate intermediate degrees of injury; 5 indicates the plant was dead; settings: ten days
Procedure: (§1) Suspensions of the test compounds were prepared by dissolving one gram of compound in 50 milliliters of acetone in which had been dissolved 0.1 gram (10 percent of the weight of compound) of an alkylphenoxy polyethoxyethanol surfactant, as an emulsifying or dispersing agent. The resulting solution was mixed into 150 milliliters of water to give roughly 200 milliliters of a suspension containing the compound in finely divided form. The thus-prepared stock suspension contained 0.5 percent by weight of compound. The test concentrations in parts per million by weight employed in the tests described hereinbelow were obtained by appropriate dilutions of the stock suspension with water. The test procedures were as follows:
(§2) Experiments were also conducted to determine the phytotoxicity of representative compositions with respect to healthy fresh plants. Solutions of the compounds were prepared as described above to provide a concentration of 2500 parts per million of the test compound. The test plants were sprayed in accordance with the procedure described above for the Mite Foliage Spray Test so as to deliver approximately 100 milliliters of test solution to the leaves of each plant tested. The sprayed plants and controls were set aside for approximately one hour to allow the solutions to dry and were then placed in the greenhouse. After ten days the plants were visually inspected to determine the extent of foliage injury. A rating of 1 indicates no perceptible injury; 5 indicates the plant was dead and ratings of 2, 3 and 4 indicate intermediate degrees of injury based upon the number and extent to which leaves were injured.

corn = experiment: Phytotoxicity Test, corn; assay type: in vivo; parameters: key: A rating of 1 indicates no perceptible injury; ratings of 2, 3 and 4 indicate intermediate degrees of injury; ratings of 2, 3 and 4 indicate intermediate degrees of injury; ratings of 2, 3 and 4 indicate intermediate degrees of injury; 5 indicates the plant was dead; settings: ten days
Procedure: as §1, §2

cotton = experiment: Phytotoxicity Test, cotton; assay type: in vivo; parameters: key: A rating of 1 indicates no perceptible injury; ratings of 2, 3 and 4 indicate intermediate degrees of injury; ratings of 2, 3 and 4 indicate intermediate degrees of injury; ratings of 2, 3 and 4 indicate intermediate degrees of injury; 5 indicates the plant was dead; settings: ten days
Procedure: as §1, §2

rat = experiment: in vivo; settings: oral, statement on Table I
Procedure: (§3) These compositions were also evaluated to determine their peroral toxicity to mammals by conventional methods. The animal selected for this experiment was the rat.

in vivo = settings: rat, in vivo, po
Procedure: as §3

[1] = tested on: two-spotted mite (Tetranychus urticae Koch); experiment: whole plant or invertebrate; settings: foliar, 144 h, read-out: Insect Toxicity, % Kill at 250 ppm, TSM
tomato = experiment: Phytotoxicity Test, tomato; assay type: in vivo; parameters: key: A rating of 1 indicates no perceptible injury; ratings of 2, 3 and 4 indicate intermediate degrees of injury; ratings of 2, 3 and 4 indicate intermediate degrees of injury; ratings of 2, 3 and 4 indicate intermediate degrees of injury; 5 indicates the plant was dead; settings: ten days
Procedure: as §1, §2

soybeans = experiment: Phytotoxicity Test, soybeans; assay type: in vivo; parameters: key: A rating of 1 indicates no perceptible injury; ratings of 2, 3 and 4 indicate intermediate degrees of injury; ratings of 2, 3 and 4 indicate intermediate degrees of injury; ratings of 2, 3 and 4 indicate intermediate degrees of injury; 5 indicates the plant was dead; settings: ten days
Procedure: as §1, §2

[2] = tested on: house flies (Musca domestica, L.); experiment: whole plant or invertebrate; settings: po, 24 h, read-out: Insect Toxicity, % Kill at 250 ppm, HF
[3] = tested on: bean aphid (Aphis fabae Scop.); experiment: whole plant or invertebrate; settings: foliar, 24 h, read-out: Insect Toxicity, % Kill at 250 ppm, BA
[4] = tested on: southern armyworm (Prodenia eridania, (Cram.)); experiment: whole plant or invertebrate; settings: Spodoptera eridania, 72 h, read-out: Insect Toxicity, % Kill at 250 ppm, SAW
[5] = tested on: Mexican bean beetle (Epilachna varivestis, Muls.); experiment: whole plant or invertebrate; settings: 72 h, read-out: Insect Toxicity, % Kill at 250 ppm, MBB

Compound | Crop Phytotoxicity, Injury Rating at 2500 ppm, GB (green beans) | Crop Phytotoxicity, Injury Rating at 2500 ppm, CN (corn) | Crop Phytotoxicity, Injury Rating at 2500 ppm, COT. (cotton) | mammalian toxicity (in words) (rat) | LD50 (in vivo) [mg/kg] | mortality at 250 ppm [1] [%] | Crop Phytotoxicity, Injury Rating at 2500 ppm, TOM (tomato) | Crop Phytotoxicity, Injury Rating at 2500 ppm, SOYBN. (soybeans) | mortality at 250 ppm [2] [%] | mortality at 250 ppm [3] [%] | mortality at 250 ppm [4] [%] | mortality at 250 ppm [5] [%]
CSC(C)=NOC(=O)N(C)SN(C)C [Compound 11, S-Methyl N-[N'-Methyl-N'-(Dimethylaminosulfenyl)carbamoyloxy]thioacetimidate] | 1 | 1 | 1 | extremely low mammalian toxicity | 141 | 50 | 2 | 1 | 100 | 100 | 100 | 100
CN(SN1CCOCC1)C(=O)ON=CC(C)(C)C#N [Compound 10, 2-Cyano-2-Methylpropionaldehyde O-[N-Methyl-N-(4-Morpholinosulfenyl)Carbamoyl]oxime] | 1 | 1 | 3 | – | – | 100 | 1 | 1 | 100 | 100 | 100 | 100
CC(=NOC(=O)N(C)SN(C)C)SC(C)C [Compound 24, S-Isopropyl-N-[N'-Methyl-N'-(Dimethylaminosulfenyl)carbamoloxy]thioacetimidate] | 2 | 1 | 2 | – | 28.3 | 100 | 2 | 3 | 100 | 100 | 100 | 100
CSC(C)=NOC(=O)N(C)SN1CCOCC1 [Compound 3, S-Methyl N-[N'-Methyl-N'-(4-Morpholinosulfenyl)carbamoyloxy]-thioacetimidate] | 1 | 1 | 1 | extremely low mammalian toxicity | – | – | 1 | 1 | – | – | – | –
CN(C)SN(C)C(=O)ON=C1CSCCS1 [Compound 23, 2-N-[N'-Methyl-N'-(Dimethylaminosulfenyl)carbamoyloxy]imino-1,4-Dithiane] | 1 | 1 | 2 | – | 15 | 100 | 1 | 1 | 100 | 100 | 100 | 100
CC1OCSC1=NOC(=O)N(C)SN1CCOCC1 (centres unmarked) [Compound 9, 5-Methyl-4-N-[N'-Methyl-N'-(4-Morpholinosulfenyl)carbamoyloxy]imino-1,3-Oxathiolane] | 1 | 1 | 1 | – | 16 | 100 | 2 | 2 | 100 | 100 | 100 | 100
CC(=NOC(=O)N(C)SN1CCOCC1)SCCC#N [Compound 8, S-(2-Cyanoethyl)-N-[N'-Methyl-N'-(4-Morpholinosulfenyl)carbamoyloxy]thioacetimidate] | 1 | 1 | 1 | – | 22 | 100 | 1 | 1 | 100 | 100 | 100 | 100
CN(SN1CCOCC1)C(=O)ON=C1CSCCS1 [Compound 5, 2-N-[N'-Methyl-N'-(4-Morpholinosulfenyl)Carbamoyloxy]imino-1,4-Dithiane] | 1 | 1 | 1 | – | 19.8 | 100 | 1 | 1 | 100 | 100 | 100 | 100
CN(SN1CCOCC1)C(=O)ON=C1SCC(=O)NC1(C)C [Compound 16, 3,3-Dimethyl-2-N-[N'-Methyl-N'-(4-Morpholinosulfenyl)Carbamoyloxy]imino-5-Oxo-Perhydro-1,4-Thiazine] | 1 | 1 | 1 | – | – | 100 | 1 | 1 | 100 | 100 | 100 | 100
CC(=NOC(=O)N(C)SN1CCOCC1)SC(C)C [Compound 7, S-Isopropyl N-[N'-Methyl-N'-(4-Morpholinosulfenyl)carbamoyloxy]thioacetimidate] | 2 | 1 | 1 | – | 28.1 | 100 | 1 | 1 | 100 | 100 | 100 | 100
CSC(C)(C)C=NOC(=O)N(C)SN1CCOCC1 [Compound 6, 2-Methyl-2-(Methylthio)propionaldehyde O-[N-Methyl-N-(4-Morpholinosulfenyl)Carbamoyl]oxime] | 1 | 1 | 1 | – | 1.2 | 100 | 1 | 1 | 100 | 100 | 10 | 0
CSC(C)=NOC(=O)N(SN1CCOCC1)C(C)C [Compound 14, S-Methyl-N-[N'-Isopropyl-N'-(4-Morpholinosulfenyl)Carbamoyloxy]Thioacetimidate] | 1 | 1 | 1 | – | – | 0 | 1 | 1 | 0 | 100 | 0 | 0

Source: patent publication US4315928A, “N-Aminosulfenyl carbamate compounds, compositions and use” (priority 1975, dated 1982)
